Test results: US20090291971A1, “HETEROARYL ETHERS AND PROCESSES FOR THEIR PREPARATION” (Wyeth, priority 2007, published 2009)

What was measured:
PI3K alpha = PI3K alpha (Homo sapiens, UniProt P42336); assay: PI3 Kinase Assay (PI3K alpha); assay type: biochemical
Method: (§1) PI3-Kinase reactions were performed in […], pH 7, […], and 25 μM ATP, with diC8-PI(4,5)P2 (Echelon, Salt Lake City Utah) as substrate. Nunc 384 well black polypropylene fluorescent plates were used for PI3K assays. Reactions were quenched by the addition of EDTA to a final concentration of […]. Final reaction volumes were […]. For evaluation of PI 3-K inhibitors, 5 ng of enzyme and 2.5 μM of substrate was used per […] reaction volume, and inhibitor concentrations ranged from 100 μM to […]; the final level of DMSO in reactions never exceeded 2%. Reactions were allowed to proceed for one hour at 25° C. After 1 hour, GST-tagged GRP1 (general receptor for phosphoinositides) PH domain fusion protein was added to a final concentration of 100 nM, and BODIPY-TMRI(1,3,4,5)P4 (Echelon) was also added to a final concentration of 5 nM. Final sample volumes were 25 μl with a final DMSO concentration of 0.8%. Assay Plates were read on Perkin-Elmer Envision plate readers with appropriate filters for Tamra [BODIPY-TMRI(1,3,4,5)P4]. Data obtained were used to calculate enzymatic activity and enzyme inhibition by inhibitor compounds.

PI3K gamma = PI3K gamma (Homo sapiens, UniProt P48736); assay: PI3 Kinase Assay (PI3K gamma); assay type: biochemical; conditions: 1 h
Method: as §1

Chain of PI3K gamma (P48736 whole entry, species assumed): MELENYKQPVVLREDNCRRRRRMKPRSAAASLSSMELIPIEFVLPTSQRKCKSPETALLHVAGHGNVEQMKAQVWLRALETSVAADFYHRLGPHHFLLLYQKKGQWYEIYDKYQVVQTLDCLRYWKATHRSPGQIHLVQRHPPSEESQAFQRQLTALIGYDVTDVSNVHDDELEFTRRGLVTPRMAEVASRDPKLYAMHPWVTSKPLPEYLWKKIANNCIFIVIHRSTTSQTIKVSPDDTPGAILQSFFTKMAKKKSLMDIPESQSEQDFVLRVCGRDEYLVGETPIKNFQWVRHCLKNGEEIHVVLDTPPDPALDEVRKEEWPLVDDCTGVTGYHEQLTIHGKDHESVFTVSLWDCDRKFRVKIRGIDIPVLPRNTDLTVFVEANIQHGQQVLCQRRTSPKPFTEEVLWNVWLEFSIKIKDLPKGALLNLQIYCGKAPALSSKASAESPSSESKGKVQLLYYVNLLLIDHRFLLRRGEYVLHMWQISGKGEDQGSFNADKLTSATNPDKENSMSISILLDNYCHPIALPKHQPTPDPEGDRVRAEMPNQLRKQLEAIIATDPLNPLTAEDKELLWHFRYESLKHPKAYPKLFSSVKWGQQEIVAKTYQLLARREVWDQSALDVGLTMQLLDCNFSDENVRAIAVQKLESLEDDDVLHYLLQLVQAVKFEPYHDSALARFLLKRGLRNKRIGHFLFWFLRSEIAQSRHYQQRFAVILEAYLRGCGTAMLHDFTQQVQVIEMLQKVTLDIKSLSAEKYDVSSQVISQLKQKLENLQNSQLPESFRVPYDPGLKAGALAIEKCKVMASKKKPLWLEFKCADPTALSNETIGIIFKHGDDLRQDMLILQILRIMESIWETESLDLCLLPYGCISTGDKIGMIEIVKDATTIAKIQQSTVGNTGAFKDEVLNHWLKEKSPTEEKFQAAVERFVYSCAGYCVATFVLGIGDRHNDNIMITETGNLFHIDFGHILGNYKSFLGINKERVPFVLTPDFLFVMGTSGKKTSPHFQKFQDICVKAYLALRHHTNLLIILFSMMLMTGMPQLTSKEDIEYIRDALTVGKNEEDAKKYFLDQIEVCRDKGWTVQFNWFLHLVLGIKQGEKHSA
Chain of PI3K alpha (P42336 whole entry, species assumed, the tested form may be a part): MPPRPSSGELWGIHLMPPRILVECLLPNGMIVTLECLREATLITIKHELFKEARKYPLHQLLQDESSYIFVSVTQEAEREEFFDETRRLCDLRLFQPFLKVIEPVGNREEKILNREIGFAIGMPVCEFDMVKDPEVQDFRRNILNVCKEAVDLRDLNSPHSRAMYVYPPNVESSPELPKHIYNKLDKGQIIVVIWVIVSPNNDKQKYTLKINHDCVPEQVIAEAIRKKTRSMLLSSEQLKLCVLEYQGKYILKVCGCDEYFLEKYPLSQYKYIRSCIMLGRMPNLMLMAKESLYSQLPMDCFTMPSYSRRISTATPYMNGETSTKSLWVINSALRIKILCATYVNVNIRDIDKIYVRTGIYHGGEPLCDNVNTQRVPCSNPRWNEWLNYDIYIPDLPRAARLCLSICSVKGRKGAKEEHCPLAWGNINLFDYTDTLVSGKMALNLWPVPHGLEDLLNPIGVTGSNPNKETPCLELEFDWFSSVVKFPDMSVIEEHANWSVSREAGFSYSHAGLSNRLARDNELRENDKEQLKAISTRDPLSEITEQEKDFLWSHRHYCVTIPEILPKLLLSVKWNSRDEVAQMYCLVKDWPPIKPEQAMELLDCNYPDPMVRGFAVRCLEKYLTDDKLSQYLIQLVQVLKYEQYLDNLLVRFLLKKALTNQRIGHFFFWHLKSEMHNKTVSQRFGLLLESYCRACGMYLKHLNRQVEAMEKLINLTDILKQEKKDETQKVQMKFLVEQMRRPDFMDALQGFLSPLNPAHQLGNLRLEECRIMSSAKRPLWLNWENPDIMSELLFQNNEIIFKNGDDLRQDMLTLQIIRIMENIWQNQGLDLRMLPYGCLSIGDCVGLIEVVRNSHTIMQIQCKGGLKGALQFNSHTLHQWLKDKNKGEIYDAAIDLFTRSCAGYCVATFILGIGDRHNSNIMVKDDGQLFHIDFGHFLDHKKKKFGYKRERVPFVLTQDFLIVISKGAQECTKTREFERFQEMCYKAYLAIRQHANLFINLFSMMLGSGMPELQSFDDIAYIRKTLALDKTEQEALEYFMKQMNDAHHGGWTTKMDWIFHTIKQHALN
Chain of PI3K alpha (P27986 whole entry partner, species assumed, the tested form may be a part): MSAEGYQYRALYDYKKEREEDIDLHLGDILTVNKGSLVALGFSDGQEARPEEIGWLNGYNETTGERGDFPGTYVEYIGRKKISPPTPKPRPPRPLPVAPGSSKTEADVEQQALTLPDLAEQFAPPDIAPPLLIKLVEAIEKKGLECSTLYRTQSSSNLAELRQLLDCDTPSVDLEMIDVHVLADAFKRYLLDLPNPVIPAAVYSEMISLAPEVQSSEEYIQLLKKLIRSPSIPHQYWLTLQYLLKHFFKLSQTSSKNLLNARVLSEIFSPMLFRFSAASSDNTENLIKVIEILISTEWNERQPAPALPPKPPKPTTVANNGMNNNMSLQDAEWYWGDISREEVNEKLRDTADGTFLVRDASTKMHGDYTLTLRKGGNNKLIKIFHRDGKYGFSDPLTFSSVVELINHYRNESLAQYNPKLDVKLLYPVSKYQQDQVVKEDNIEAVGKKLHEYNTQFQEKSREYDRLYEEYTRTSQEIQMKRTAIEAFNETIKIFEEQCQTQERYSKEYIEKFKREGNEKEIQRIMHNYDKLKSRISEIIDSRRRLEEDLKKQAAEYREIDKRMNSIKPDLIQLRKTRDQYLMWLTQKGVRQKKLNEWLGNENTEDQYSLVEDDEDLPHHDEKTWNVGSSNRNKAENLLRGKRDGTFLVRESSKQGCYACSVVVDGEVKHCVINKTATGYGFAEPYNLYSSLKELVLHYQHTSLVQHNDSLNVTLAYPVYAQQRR

Structure (SMILES) | inhibition at 30 µM (PI3K alpha) | inhibition at 30 µM (PI3K gamma)
O=[N+]([O-])c1cccc(Oc2ncnc3ccccc23)c1 [Example 19, 4-(3-Nitrophenoxy)quinazoline] | 24% | < 10%
COc1ccc(Oc2ncnc3ccccc23)cc1 [Example 20, 4-(4-Methoxyphenoxy)quinazoline] | 65% | 4%
FC(F)(F)c1ccc(Oc2ncnc3ccccc23)cc1 [Example 21, 4-(4-(Trifluoromethyl)phenoxy)quinazoline] | 36% | 6%
CC(=O)c1ccc(Oc2ncnc3ccccc23)cc1 [Example 22, 1-(4-(Quinazolin-4-yloxy)phenyl)ethanone] | 34% | 45%
N#Cc1ccc(Oc2ncnc3ccccc23)cc1 [Example 24, 4-(Quinazolin-4-yloxy)benzonitrile] | 18% | < 10%
COc1ncccc1Oc1ncnc2ccccc12 [Example 28, 4-(2-Methoxypyridin-3-yloxy)quinazoline] | 22% | < 10%
N#Cc1cccc(Oc2ncnc3sccc23)c1 [Example 32, 3-(Thieno[2,3-d]pyrimidin-4-yloxy)benzonitrile] | 32% | < 10%
O=[N+]([O-])c1cccc(Oc2ncnc3sccc23)c1 [Example 34, 4-(3-Nitrophenoxy)thieno[2,3-d]pyrimidine] | 14% | < 10%
Cc1noc(C)c1Oc1ncnc2sccc12 [Example 35, 3,5-Dimethyl-4-(thieno[2,3-d]pyrimidin-4-yloxy)isoxazole] | 26% | 11%
COC(=O)c1sc2ncnc(Oc3ccccc3)c2c1C [Example 36, Methyl 5-methyl-4-phenoxythieno[2,3-d]pyrimidine-6-carboxylate] | 63% | 36%
COC(=O)c1sc2ncnc(Oc3cccc([N+](=O)[O-])c3)c2c1C [Example 37, Methyl 5-methyl-4-(3-nitrophenoxy)thieno[2,3-d]pyrimidine-6-carboxylate] | 24% | 16%
COC(=O)c1sc2ncnc(Oc3cccc(C#N)c3)c2c1C [Example 38, Methyl 4-(3-cyanophenoxy)-5-methylthieno[2,3-d]pyrimidine-6-carboxylate] | 40% | 23%
COc1ncccc1Oc1ncc(Br)cn1 [Example 57, 5-Bromo-2-(2-methoxypyridin-3-yloxy)pyrimidine] | 44% | < 10%
COc1ncccc1Oc1ccn(C)c(=O)n1 [Example 59, 4-(2-Methoxypyridin-3-yloxy)-1-methylpyrimidin-2(1H)-one] | 46% | < 10%
CC(=O)c1ccccc1Oc1ncc(Br)cn1 [compound 44, 1-[2-(5-Bromo-pyrimidin-2-yloxy)-phenyl]-ethanone] | 72% | 44%
